In patent US20120258980A1, “Antibacterial Agent for Drug-Resistant Bacteria, Method for Screening for Same, and Use of Same” (priority 2009, published 2012):
In brackets after ≈: the same amount, converted by molar mass. Where two headings read alike, the source gives them in different places.

Experiments:
[1] = tested on: VISA clinical isolates of MRSA (VI-MRSA) and of MSSA (VI-MSSA); assay: microbe, parasite or virus in culture; type: cell-based, Staphylococcus aureus
In short: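 Strains were grown overnight at 37° C in TSB, adjusted in CAMHB to 0.3 absorbance at 578 nm and diluted 500-fold before equal-volume addition to compound dilutions.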

[2] = tested on: methicillin-susceptible S. aureus (MSSA), MRSA and mutants thereof; assay: MIC measurement, Test Example 3 (MSSA, MRSA and sequential gyrA/grlA quinolone-resistant mutants); type: cell-based, Staphylococcus aureus; settings: Staphylococcus aureus
Source text: That is, the first-step quinolone-resistant mutants are bacterial strains which are the same as their parent strains (clinical isolates) except that the genes shown in the corresponding parts of Table 1-1 are mutated. The second-step quinolone-resistant mutants are bacterial strains which are the same as the first-step quinolone-resistant mutants except that the genes shown in the corresponding parts of Table 1-1 are further mutated. The third-step quinolone-resistant mutants are bacterial strains which are the same as the second-step quinolone-resistant mutants except that the genes shown in the corresponding parts of Table 1-1 are further mutated. The fourth-step quinolone-resistant strain is a bacterial strain which is the same as the third-step quinolone-resistant mutant bacteria except that the gene shown in the corresponding part of Table 1-1 is further mutated.
(§1) Each of the bacterial strains listed in Table 1-1 was shake-cultured at 37° C. overnight in 4 mL of a medium (Tryptical Soy Broth: TSB, product of Becton Dickinson and Company). FDA209P was used as a control.
(§2) After completion of culturing, the resultant culture was suspended in a cation-adjusted Mueller Hinton Broth (CAMHB, product of Becton Dickinson and Company). Then, the obtained bacterial culture was adjusted in absorbance with the CAMHB so that the absorbance at 578 nm of the bacterial culture was adjusted to 0.3 measured by an absorption spectrometer. In addition, the resultant bacterial culture was 500-fold diluted with the CAMHB.
(§3) Each of the 500-fold diluted, pre-cultured bacterial cultures was added at 50 μL/well to the CAMHB containing the quinolones and the nybomycins at various concentrations (50 μL/well), followed by statically culturing at 37° C. overnight.
(§4) After completion of culturing, the growth of the bacteria was visually determined based on turbidity to measure MIC in each bacterial strain.

Enterococcus faecalis = assay: MIC measurement, Test Example 6 (enterococcus); type: cell-based; settings: for MIC: Enterococcus faecalis, read-out: MIC
Protocol: as §1, §2, §3, §4
Quinolones and nybomycins were evaluated for antibacterial activity against Enterococcus faecalis shown in Table 6, wherein the other strains than NCTC12201 and NCTC12203 were subdivided from Shionogi & Co., Ltd (note that these strains are available also from the Department of Bacteriology, Juntendo University). The NCTC strains are both vancomycin-resistant E. faecalis and available from the National Collection of Type Cultures (NCTC).

VRSA clinical isolates = assay: microbe, parasite or virus in culture; type: cell-based; settings: Staphylococcus aureus
Protocol: as §1, §2, §3, §4
Here, the glycopeptides used were VCM and TEIC. The β-lactam used was OXA.

SMILES: Cc1cc(=O)n2c3c(c4c(cc13)c(CO)cc(=O)n4C)OC2 [NM, nybomycin]
- MIC ([1]; Staphylococcus aureus, 99/3700-W, VI-MRSA, The United Kingdom): 0.25 µg/mL (≈ 0.838 µM)
- MIC ([1]; Staphylococcus aureus, 99/3759-V, VI-MRSA, The United Kingdom): 0.5 µg/mL (≈ 1.68 µM)
- MIC ([1]; Staphylococcus aureus, 28160, VI-MRSA, South African Republic): 0.5 µg/mL (≈ 1.68 µM)
- MIC ([1]; Staphylococcus aureus, 98141, VI-MRSA, France): 0.5 µg/mL (≈ 1.68 µM)
- MIC ([1]; Staphylococcus aureus, A7 (JCSC4842), VI-MRSA, Taiwan): 0.125 µg/mL (≈ 0.419 µM)
- MIC ([1]; Staphylococcus aureus, AMC11094, VI-MRSA, Korea): 1 µg/mL (≈ 3.35 µM)
- MIC ([1]; Staphylococcus aureus, B7 (JCSC4852), VI-MRSA, Taiwan): ≤ 0.063 µg/mL
- MIC ([1]; Staphylococcus aureus, BR1, VI-MRSA, Brazil): 0.5 µg/mL (≈ 1.68 µM)
- MIC ([1]; Staphylococcus aureus, BR2, VI-MRSA, Brazil): 0.25 µg/mL (≈ 0.838 µM)
- MIC ([1]; Staphylococcus aureus, BR3, VI-MRSA, Brazil): 0.25 µg/mL (≈ 0.838 µM)
- MIC ([1]; Staphylococcus aureus, BR4, VI-MRSA, Brazil): 0.25 µg/mL (≈ 0.838 µM)
- MIC ([1]; Staphylococcus aureus, BR5, VI-MRSA, Brazil): 0.25 µg/mL (≈ 0.838 µM)
- MIC ([1]; Staphylococcus aureus, HIP06297, VI-MRSA, America): 0.5 µg/mL (≈ 1.68 µM)
- MIC ([1]; Staphylococcus aureus, HIP06854, VI-MRSA, America): 1 µg/mL (≈ 3.35 µM)
- MIC ([1]; Staphylococcus aureus, HIP07920, VI-MRSA, America): 0.25 µg/mL (≈ 0.838 µM)
- MIC ([1]; Staphylococcus aureus, HIP07930, VI-MRSA, America): 1 µg/mL (≈ 3.35 µM)
- MIC ([1]; Staphylococcus aureus, HIP08926, VI-MRSA, America): 0.25 µg/mL (≈ 0.838 µM)
- MIC ([1]; Staphylococcus aureus, HIP09143, VI-MRSA, America): 0.25 µg/mL (≈ 0.838 µM)
- MIC ([1]; Staphylococcus aureus, HIP09313, VI-MRSA, America): 0.5 µg/mL (≈ 1.68 µM)
- MIC ([1]; Staphylococcus aureus, HIP09433, VI-MRSA, America): 1 µg/mL (≈ 3.35 µM)
- MIC ([1]; Staphylococcus aureus, HIP09662, VI-MRSA, America): 1 µg/mL (≈ 3.35 µM)
- MIC ([1]; Staphylococcus aureus, HIP09735, VI-MRSA, America): 0.25 µg/mL (≈ 0.838 µM)
- MIC ([1]; Staphylococcus aureus, HIP09737, VI-MSSA, America): 1 µg/mL (≈ 3.35 µM)
- MIC ([1]; Staphylococcus aureus, HIP09740, VI-MRSA, America): 0.25 µg/mL (≈ 0.838 µM)
- MIC ([1]; Staphylococcus aureus, HIP10267, VI-MRSA, America): 2 µg/mL (≈ 6.7 µM)
- MIC ([1]; Staphylococcus aureus, HIP10540, VI-MRSA, America): 0.25 µg/mL (≈ 0.838 µM)
- MIC ([1]; Staphylococcus aureus, HIP12864, VI-MRSA, America): 0.5 µg/mL (≈ 1.68 µM)
- MIC ([1]; Staphylococcus aureus, HIP13036, VI-MRSA, America): 0.5 µg/mL (≈ 1.68 µM)
- MIC ([1]; Staphylococcus aureus, HIP13057, VI-MRSA, America): 0.25 µg/mL (≈ 0.838 µM)
- MIC ([1]; Staphylococcus aureus, IL (HIP7737), VI-MRSA, America): 1 µg/mL (≈ 3.35 µM)
- MIC ([1]; Staphylococcus aureus, JCSC7193, VI-MRSA, Thailand): 0.33 µg/mL (≈ 1.11 µM)
- MIC ([1]; Staphylococcus aureus, JCSC7195, VI-MRSA, Thailand): 0.33 µg/mL (≈ 1.11 µM)
- MIC ([1]; Staphylococcus aureus, JCSC7203, VI-MRSA, Thailand): 0.16 µg/mL (≈ 0.536 µM)
- MIC ([1]; Staphylococcus aureus, LIM2, VI-MRSA, France): 0.5 µg/mL (≈ 1.68 µM)
- MIC ([1]; Staphylococcus aureus, LY-1999-01, VI-MSSA, Oman): 0.125 µg/mL (≈ 0.419 µM)
- MIC ([1]; Staphylococcus aureus, LY-1999-03, VI-MRSA, Oman): ≤ 0.063 µg/mL
- MIC ([1]; Staphylococcus aureus, MI (HIP5827), VI-MRSA, America): 0.5 µg/mL (≈ 1.68 µM)
- MIC ([1]; Staphylococcus aureus, MRSA / MSSA / NRS 76 / VISA, NRS76, VI-MSSA, America): 0.25 µg/mL (≈ 0.838 µM)
- MIC ([1]; Staphylococcus aureus, MRSA / MSSA / NRS 79 / VISA, NRS79, VI-MRSA, America): 1 µg/mL (≈ 3.35 µM)
- MIC ([1]; Staphylococcus aureus, MRSA / MSSA / NRS 118 / VISA, NRS118, VI-MRSA, America): 0.25 µg/mL (≈ 0.838 µM)
- MIC ([1]; Staphylococcus aureus, MRSA / MSSA / NRS 126 / VISA, NRS126, VI-MRSA, America): 0.5 µg/mL (≈ 1.68 µM)
- MIC ([1]; Staphylococcus aureus, Mu3, VI-MRSA, Japan): 0.5 µg/mL (≈ 1.68 µM)
- MIC ([1]; Staphylococcus aureus, Mu50, VI-MRSA, Japan): 0.25 µg/mL (≈ 0.838 µM)
- MIC ([1]; Staphylococcus aureus, NJ (HIP5836), VI-MRSA, America): 0.5 µg/mL (≈ 1.68 µM)
- MIC ([1]; Staphylococcus aureus, P1V44, VI-MSSA, Belgium): 1 µg/mL (≈ 3.35 µM)
- MIC ([1]; Staphylococcus aureus, PC, VI-MRSA, America): 1 µg/mL (≈ 3.35 µM)
- MIC ([1]; Staphylococcus aureus, SA MER-S6, VI-MSSA, France): 64 µg/mL (≈ 215 µM)
- MIC ([1]; Staphylococcus aureus, SA MER-S12, VI-MSSA, France): 64 µg/mL (≈ 215 µM)
- MIC ([1]; Staphylococcus aureus, SA MER-S20, VI-MSSA, France): > 64 µg/mL
- MIC ([2]; FDA209P / MRSA / MSSA, FDA209P (MSSA), control, read-out: MIC): > 64 µg/mL
- MIC ([2]; MR5867 (MRSA), clinical isolate parent strain, no mutation): > 64 µg/mL
- MIC ([2]; MR5867-1, first-step quinolone-resistant mutant, grlA E84K): > 64 µg/mL
- MIC ([2]; MS5935 (MSSA), clinical isolate parent strain, no mutation, read-out: MIC): > 64 µg/mL
- MIC ([2]; MS5935-1, first-step quinolone-resistant mutant, grlA S80F): > 64 µg/mL
- MIC ([2]; MS5952 (MSSA), clinical isolate parent strain, no mutation, read-out: MIC): > 64 µg/mL
- MIC ([2]; MS5952-1, first-step quinolone-resistant mutant, grlA S80Y): > 64 µg/mL
- MIC (Enterococcus faecalis; E. faecalis 36-15672, quinolone-susceptible enterococci): > 64 µg/mL
- MIC (Enterococcus faecalis; E. faecalis 36-15673, quinolone-susceptible enterococci): > 64 µg/mL
- MIC (Enterococcus faecalis; E. faecalis 36-15678, quinolone-susceptible enterococci): > 64 µg/mL
- MIC (Enterococcus faecalis; E. faecalis 36-15686, quinolone-resistant enterococci): 0.5 µg/mL (≈ 1.68 µM)
- MIC (Enterococcus faecalis; E. faecalis 36-15688, quinolone-susceptible enterococci): > 64 µg/mL
- MIC (Enterococcus faecalis; E. faecalis 36-15694, quinolone-resistant enterococci): 1 µg/mL (≈ 3.35 µM)
- MIC (Enterococcus faecalis; E. faecalis 36-15696, quinolone-susceptible enterococci): > 64 µg/mL
- MIC (Enterococcus faecalis; E. faecalis 36-15703, quinolone-resistant enterococci): 2 µg/mL (≈ 6.7 µM)
- MIC (Enterococcus faecalis; E. faecalis 36-15716, quinolone-resistant enterococci): 1 µg/mL (≈ 3.35 µM)
- MIC (Enterococcus faecalis; E. faecalis 36-15718, quinolone-susceptible enterococci): 32 µg/mL (≈ 107 µM)
- MIC (Enterococcus faecalis; E. faecalis 36-15720, quinolone-susceptible enterococci): > 64 µg/mL
- MIC (Enterococcus faecalis; E. faecalis 36-15722, quinolone-resistant enterococci): 1 µg/mL (≈ 3.35 µM)
- MIC (Enterococcus faecalis; E. faecalis 36-15726, quinolone-resistant enterococci): 0.5 µg/mL (≈ 1.68 µM)
- MIC (Enterococcus faecalis; E. faecalis 36-15730, quinolone-susceptible enterococci): > 64 µg/mL
- MIC (Enterococcus faecalis; E. faecalis 36-15736, quinolone-susceptible enterococci): > 64 µg/mL
- MIC (Enterococcus faecalis; E. faecalis 36-15741, quinolone-susceptible enterococci): > 64 µg/mL
- MIC (Enterococcus faecalis; NCTC 12201 / VRE, E. faecalis NCTC12201, vancomycin-resistant (VRE), quinolone-susceptible enterococci): 8 µg/mL (≈ 26.8 µM)
- MIC (Enterococcus faecalis; NCTC 12203 / VRE, E. faecalis NCTC12203, vancomycin-resistant (VRE), quinolone-susceptible enterococci): 16 µg/mL (≈ 53.6 µM)
- antibacterial activity, comparison between NM and DNM (Enterococcus faecalis; against enterococci): higher antibacterial activity against enterococci than DNM
- MIC (VRSA clinical isolates; VRS1, VRSA, Michigan): 0.125 µg/mL (≈ 0.419 µM)
- MIC (VRSA clinical isolates; VRS2, VRSA, Pennsylvania): 0.25 µg/mL (≈ 0.838 µM)
- MIC (VRSA clinical isolates; VRS3, VRSA, New York): 0.125 µg/mL (≈ 0.419 µM)
- MIC (VRSA clinical isolates; VRS4, VRSA, New York): 0.125 µg/mL (≈ 0.419 µM)
- MIC (VRSA clinical isolates; VRS5, VRSA, Michigan): ≤ 0.063 µg/mL
- MIC (VRSA clinical isolates; VRS6, VRSA, Michigan): ≤ 0.063 µg/mL
- MIC (VRSA clinical isolates; VRS7, VRSA, Michigan): 0.5 µg/mL (≈ 1.68 µM)
